Among the data in ChEMBL document CHEMBL4190173 (Medchemcomm, 2016) are IC50 and inhibition values, retold here.

Active and inactive are the calls of the source. No cut-off for these calls is given here.

Assay [1] deals with T1, NAD-dependent protein deacetylase sirtuin-1 (Homo sapiens, UniProt Q96EB6).
T1 sequence (Q96EB6 whole entry): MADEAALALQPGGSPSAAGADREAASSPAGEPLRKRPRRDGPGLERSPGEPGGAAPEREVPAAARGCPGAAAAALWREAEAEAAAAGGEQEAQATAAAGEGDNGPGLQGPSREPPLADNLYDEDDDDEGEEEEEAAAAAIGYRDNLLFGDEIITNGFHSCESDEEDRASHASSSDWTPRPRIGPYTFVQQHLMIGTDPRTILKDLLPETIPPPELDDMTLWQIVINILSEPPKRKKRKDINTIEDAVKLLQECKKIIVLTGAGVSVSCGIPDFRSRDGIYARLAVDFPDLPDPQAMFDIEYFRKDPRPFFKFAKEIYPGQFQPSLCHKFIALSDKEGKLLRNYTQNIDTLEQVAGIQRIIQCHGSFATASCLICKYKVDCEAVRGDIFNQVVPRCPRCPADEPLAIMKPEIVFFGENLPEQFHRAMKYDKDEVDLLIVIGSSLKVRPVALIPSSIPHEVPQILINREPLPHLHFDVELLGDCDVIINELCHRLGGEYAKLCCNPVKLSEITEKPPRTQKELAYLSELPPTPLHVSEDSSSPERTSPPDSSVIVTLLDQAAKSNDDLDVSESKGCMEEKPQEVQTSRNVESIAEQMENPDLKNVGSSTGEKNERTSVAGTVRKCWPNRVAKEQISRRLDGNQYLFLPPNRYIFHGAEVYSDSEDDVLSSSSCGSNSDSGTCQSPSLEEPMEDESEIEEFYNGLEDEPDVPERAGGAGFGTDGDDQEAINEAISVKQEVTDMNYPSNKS
The experiment in a line: Inhibition of human recombinant SIRT1 using AMC-p53 (379 to 382 residues) as substrate incubated for 45 mins followed by NAD+ addition measured after 30 mins by fluorescence assay.

The target of assay [2] is T2, NAD-dependent protein deacetylase sirtuin-2 (Homo sapiens, UniProt Q8IXJ6).
T2 sequence (Q8IXJ6 whole entry): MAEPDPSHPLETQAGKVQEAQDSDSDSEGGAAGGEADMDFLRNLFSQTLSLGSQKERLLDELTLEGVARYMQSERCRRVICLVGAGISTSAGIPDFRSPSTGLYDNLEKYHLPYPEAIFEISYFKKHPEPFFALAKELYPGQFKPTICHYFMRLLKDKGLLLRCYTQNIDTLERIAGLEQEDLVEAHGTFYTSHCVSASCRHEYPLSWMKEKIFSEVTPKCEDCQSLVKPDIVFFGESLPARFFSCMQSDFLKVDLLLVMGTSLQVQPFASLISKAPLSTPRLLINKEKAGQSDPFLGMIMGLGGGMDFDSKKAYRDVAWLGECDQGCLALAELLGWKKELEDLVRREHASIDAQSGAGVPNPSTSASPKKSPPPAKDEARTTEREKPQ
The experiment in a line: Inhibition of human recombinant SIRT2 using AMC-p53 (317 to 320 residues) as substrate incubated for 45 mins followed by NAD+ addition measured after 30 mins by fluorescence assay.

The target of assay [3] is T3, NAD-dependent protein deacetylase sirtuin-2 (Homo sapiens) (UniProt Q8IXJ6).
T3 sequence (whole entry): T2 sequence (Q8IXJ6 whole entry)
The assay is described as follows: Competitive inhibition of human recombinant SIRT2 using varying levels of NAD+.

Assay [4] deals with T3, NAD-dependent protein deacetylase sirtuin-2 (Homo sapiens). The experiment in a line: Competitive inhibition of human recombinant SIRT2 using varying levels of AMC-p53 (317 to 320 residues) as substrate.
Assay [5] has as its target T4, NAD-dependent protein deacetylase sirtuin-1 (Homo sapiens) (UniProt Q96EB6).
T4 sequence (whole entry): T1 sequence (Q96EB6 whole entry)
The assay is described as follows: Inhibition of human recombinant SIRT1 at 50 uM using AMC-p53 (379 to 382 residues) as substrate incubated for 45 mins followed by NAD+ addition measured after 30 mins by fluorescence assay relative to control.

The target in assay [6] is T3, NAD-dependent protein deacetylase sirtuin-2 (Homo sapiens). The experiment in a line: Inhibition of human recombinant SIRT2 at 50 uM using AMC-p53 ([…] residues) as substrate incubated for 45 mins followed by NAD+ addition measured after 30 mins by fluorescence assay relative to control.
Assay [7] has as its target T5, NAD-dependent protein deacetylase sirtuin-3, mitochondrial (Homo sapiens) (UniProt Q9NTG7).
T5 sequence (whole entry): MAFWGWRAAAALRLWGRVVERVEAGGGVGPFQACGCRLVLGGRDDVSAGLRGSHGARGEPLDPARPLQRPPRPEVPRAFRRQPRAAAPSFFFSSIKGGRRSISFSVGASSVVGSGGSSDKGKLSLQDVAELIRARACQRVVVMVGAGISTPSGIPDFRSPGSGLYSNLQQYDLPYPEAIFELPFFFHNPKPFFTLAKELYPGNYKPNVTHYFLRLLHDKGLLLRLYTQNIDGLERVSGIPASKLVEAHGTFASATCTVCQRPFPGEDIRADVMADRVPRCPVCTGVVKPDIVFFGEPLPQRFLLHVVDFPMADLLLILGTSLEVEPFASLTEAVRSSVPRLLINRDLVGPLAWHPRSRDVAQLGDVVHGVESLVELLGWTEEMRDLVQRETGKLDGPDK
The experiment in a line: Inhibition of human recombinant SIRT3 at 50 uM using AMC-p53 ([…] residues) as substrate incubated for 45 mins followed by NAD+ addition measured after 30 mins by fluorescence assay relative to control.

Assay [8] deals with T6, NAD-dependent protein deacetylase sirtuin-3, mitochondrial (Homo sapiens, UniProt Q9NTG7).
T6 sequence (Q9NTG7 whole entry): T5 sequence (whole entry)
The experiment in a line: Inhibition of human recombinant SIRT3 using AMC-p53 (317 to 320 residues) as substrate incubated for 45 mins followed by NAD+ addition measured after 30 mins by fluorescence assay.

Consider `CCOC(=O)c1ccc(N2CCN(CCn3c(-c4ccc(-c5ccc(N(C)C)cc5)cc4)nc4cc(C(=O)OCC)ccc43)CC2)c(N)c1`, for which the IC50 (usually the concentration needed to halve the response being measured) in assay [1] is 10.2 µM; in assay [2] it was 2.92 µM. Besides, the inhibition result in assay [3] and in assay [4] was “Active” throughout.

Turning to `CCCCCCCCn1c(-c2ccc(-c3cccc(-c4ccc(F)cn4)c3)cc2)nc2cc(C(=O)OCC)ccc21`, the figures for the inhibition in assay [5], in assay [6] and in assay [7] were 22%, 14% and 24.4%, respectively.

For `CN(C)CCCCC(=O)Nc1ccc(NC(=S)NC(=O)c2ccc(C(C)(C)C)cc2)cc1`, the IC50 in assay [8] worked out at 82.6 µM.

In the case of `CCOC(=O)c1ccc(N2CCN(CCn3c(-c4ccc(-c5cncc(-c6ccc(F)cc6)c5)cc4)nc4cc(C(=O)OCC)ccc43)CC2)c(N)c1`, the inhibition – broadly, how much of the control response was suppressed – in assay [5] turned out to be 20.6%; in assay [6] it was 20.9%; in assay [7], 18.4%.

For the compound `CCCCCCCCn1c(-c2ccc(-c3ccc(N(C)C)cc3)cc2)nc2cc(C(=O)OCC)ccc21`, the IC50 in assay [1] was over 50 µM; in assay [2] it was 38.1 µM; in assay [8], over 50 µM.

Take `CCOC(=O)c1ccc(N2CCN(CCn3c(-c4ccc(-c5ccc(O)c(OC)c5)cc4)nc4cc(C(=O)OCC)ccc43)CC2)c(N)c1`: the IC50 in assay [1] came out at 35.1 µM; in assay [2], 8.61 µM.

In the case of `CCCCCCCCn1c(-c2ccc(-c3ccc4c(c3)OCO4)cc2)nc2cc(C(=O)OCC)ccc21`, the half-inhibitory concentration (IC50) in assay [1] is over 50 µM; in assay [2] it was 41.4 µM; in assay [8], over 50 µM.

Regarding `CCOC(=O)c1ccc(N2CCN(CCn3c(-c4ccc(-c5ccc(Cl)cc5)cc4)nc4cc(C(=O)OCC)ccc43)CC2)c(N)c1`, the inhibition amounted to 28.2% in assay [5], 43.3% in assay [6] and 38% in assay [7].

Turning to `CCCCCCCCn1c(-c2ccc(-c3ccc(OC(F)(F)F)cc3)cc2)nc2cc(C(=O)OCC)ccc21`, the inhibition in assay [5] is 25%; in assay [6] it was 35.6%; in assay [7], 16.9%.

On to `CCOC(=O)c1ccc(N2CCN(CCn3c(-c4ccc(-c5ccc(N6CCCCC6)cc5)cc4)nc4cc(C(=O)OCC)ccc43)CC2)c(N)c1`, for which the IC50 in assay [1] is 37 µM; in assay [2], 13.5 µM.

Take `CCCCCCCCn1c(-c2ccc(-c3ccc(O)c(OC)c3)cc2)nc2cc(C(=O)OCC)ccc21`: the values for the IC50 in assay [1], in assay [2] and in assay [8] were over 50 µM, 46.9 µM and over 50 µM, respectively.

`CCOC(=O)c1ccc(N2CCN(CCn3c(-c4ccc(-c5ccc(O)cc5O)cc4)nc4cc(C(=O)OCC)ccc43)CC2)c(N)c1`: the IC50 in assay [1] was determined as 20 µM; in assay [2] it was 7.87 µM.

With `CCCCCCCCn1c(-c2ccc(-c3ccc(Cl)cc3)cc2)nc2cc(C(=O)OCC)ccc21`, the inhibition in assay [5] is 24.3%; in assay [6] it was 38.3%; in assay [7] it was 24.9%.

Turning to `CCOC(=O)c1ccc(N2CCN(CCn3c(-c4ccc(-c5ccccc5)cc4)nc4cc(C(=O)OCC)ccc43)CC2)c(N)c1`, the inhibition in assay [5] amounted to 31.1%; in assay [6] it was 26.8%; in assay [7] it was 25.1%.

As for `CCOC(=O)c1ccc(N2CCN(CCn3c(-c4ccc(-c5ccc6c(c5)OCO6)cc4)nc4cc(C(=O)OCC)ccc43)CC2)c(N)c1`, the IC50 in assay [1] is 29.8 µM; in assay [2], 16.1 µM; in assay [8], 27 µM.

Turning to `CCCCCCCCn1c(-c2ccc(-c3ccc(C)cc3)cc2)nc2cc(C(=O)OCC)ccc21`, the inhibition came to 15.3% in assay [5], 30.3% in assay [6] and 19.4% in assay [7].

On to `CCCCCCCCn1c(-c2ccc(-c3ccccc3)cc2)nc2cc(C(=O)OCC)ccc21`, for which the inhibition in assay [5] was found to be 23.9%; in assay [6] it was 30%; in assay [7], 20.4%.

As to `CCCCCCCCn1c(-c2ccc(-c3ccc(N4CCCCC4)cc3)cc2)nc2cc(C(=O)OCC)ccc21`, the half-maximal inhibitory concentration (IC50) is over 50 µM in assay [1], 36.8 µM in assay [2] and over 50 µM in assay [8].

On to `CCOC(=O)c1ccc(N2CCN(CCn3c(-c4ccc(-c5ccc(OC(F)(F)F)cc5)cc4)nc4cc(C(=O)OCC)ccc43)CC2)c(N)c1`, for which the inhibition in assay [5] came out at 24.6%; in assay [6], 37.2%; in assay [7] it was 20.6%.

For the compound `CCOC(=O)c1ccc(N2CCN(CCn3c(-c4ccc(-c5ccc(C)cc5)cc4)nc4cc(C(=O)OCC)ccc43)CC2)c(N)c1`, the figures for the inhibition in assay [5], in assay [6] and in assay [7] were 28.4%, 43% and 30.7%, respectively.

As for `CCCCCCCCn1c(-c2ccc(-c3ccc(O)cc3O)cc2)nc2cc(C(=O)OCC)ccc21`, the inhibition came to 29% in assay [5], 45.9% in assay [6] and 31.5% in assay [7].
